Tests used:
Format in all cases: binding
CxD7L2 [1] = target: T1, CxD7L2 (Culex quinquefasciatus, UniProt B0X6Z1); test: ITC
T1 construct: gene D7L2; full-length mature protein, C-terminal 6x-His, HEK293

CxD7L1 = CxD7L1 (Culex quinquefasciatus, UniProt A0A1S4K3K8); test: ITC; design: gene D7L1; mature protein, C-terminal 6x-His, HEK293
CxD7L2 [2] = target: T1, CxD7L2; test: ITC (also with protein saturated with serotonin)

T1 sequence (B0X6Z1 21-313 limits assumed): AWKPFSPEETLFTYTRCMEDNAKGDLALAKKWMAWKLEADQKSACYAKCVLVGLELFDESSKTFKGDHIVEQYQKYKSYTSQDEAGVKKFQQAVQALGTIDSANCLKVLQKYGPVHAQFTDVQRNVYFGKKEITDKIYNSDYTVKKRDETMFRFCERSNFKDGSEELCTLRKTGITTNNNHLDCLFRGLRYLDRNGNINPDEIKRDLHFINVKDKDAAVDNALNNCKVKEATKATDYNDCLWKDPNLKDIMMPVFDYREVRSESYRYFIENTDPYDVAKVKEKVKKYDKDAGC
Sequence of CxD7L1 (A0A1S4K3K8 17-311 limits assumed): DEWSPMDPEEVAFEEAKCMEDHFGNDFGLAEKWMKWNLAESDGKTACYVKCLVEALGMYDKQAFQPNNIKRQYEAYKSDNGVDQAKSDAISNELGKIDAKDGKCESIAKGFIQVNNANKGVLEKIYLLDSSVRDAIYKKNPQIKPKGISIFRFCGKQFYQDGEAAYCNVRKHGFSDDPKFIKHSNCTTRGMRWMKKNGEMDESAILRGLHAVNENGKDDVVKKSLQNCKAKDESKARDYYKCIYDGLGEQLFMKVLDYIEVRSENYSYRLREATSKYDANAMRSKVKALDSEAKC

Row | SMILES | Kd (CxD7L2 [1]) [µM] | further results
1 | CCCCC/C=C\C\C=C/C=C/C=C/[C@@H](SC[C@H](N)C(=O)O)[C@@H](O)CCCC(=O)O [LTE4] | 0.159 | –
2 | Nc1ncnc2c1ncn2[C@@H]1O[C@H](COP(=O)(O)OP(=O)(O)OP(=O)(O)O)[C@@H](O)[C@H]1O [ATP] | – | Kd (CxD7L1): 0.0308 µM
3 | NCCc1c[nH]cn1 [Histamine] | 0.383 | –
4 | CCCCC/C=C\C\C=C/C=C/C=C/[C@@H](SC[C@H](N)C(=O)NCC(=O)O)[C@@H](O)CCCC(=O)O [LTD4] | – | Kd (CxD7L2 [2]): 0.156 µM
5 | CCCCC/C=C\C\C=C/C=C/C=C/[C@@H](SC[C@H](NC(=O)CC[C@H](N)C(=O)O)C(=O)NCC(=O)O)[C@@H](O)CCCC(=O)O [LTC4] | 0.152 | –
6 | Nc1ncnc2c1ncn2[C@@H]1O[C@H](COP(=O)(O)O)[C@@H](O)[C@H]1O [AMP] | – | Kd (CxD7L1): 0.0775 µM
7 | NCCc1c[nH]c2ccc(O)cc12 [Serotonin] | 0.00746 | –

Reference: paper PMC7283271, “ADP binding by the Culex quinquefasciatus mosquito D7 salivary protein enhances blood feeding on mammals” (Nature Communications, 2020)
